According to patent US20070128217A1 (priority 2003, published 2007):

What was measured:
[1] = tested on: antibodies in sera from SARS patients (sera 1a, 1b, 2, 6, 37, 62, London, SARS-yellow, SARS-green); format: binding, human; design: Binding of serum 6 to linear peptides of protein X1 of SARS-CoV Urbani / Binding of serum 37 to linear peptides of protein X1 of SARS-CoV Urbani / Binding of serum 6 to looped/cyclic peptide (PEPSCAN-ELISA) / Binding of serum 37 to looped/cyclic peptide (PEPSCAN-ELISA) / Binding of serum 37 to looped/cyclic peptides of protein X1 of SARS-CoV Urbani / Binding of serum 6 to linear peptides of protein X2 / Binding of serum 37 to linear peptides of protein X2 / Binding of serum 37 to looped/cyclic peptides of protein X2 of SARS-CoV Urbani / Binding of serum 6 to linear peptides of protein M of SARS-CoV Urbani / Binding of serum 37 to linear peptides of protein M of SARS-CoV Urbani / Binding of serum 6 to looped/cyclic peptides of protein M of SARS-CoV Urbani / Binding of serum 37 to looped/cyclic peptides of protein M of SARS-CoV Urbani / Binding of serum 6 to linear peptides of protein X3 of SARS-CoV Urbani / Binding of serum 37 to linear peptides of protein X3 of SARS-CoV Urbani / Binding of serum 37 to looped/cyclic peptides of protein X3 of SARS-CoV Urbani / Binding of serum 6 to linear peptides of protein X4 of SARS-CoV Urbani / Binding of serum 37 to linear peptides of protein X4 of SARS-CoV Urbani / Binding of serum 37 to looped/cyclic peptides of protein X4 of SARS-CoV Urbani / Binding of serum 6 to linear peptides of protein X5 of SARS-CoV Urbani / Binding of serum 37 to linear peptides of protein X5 of SARS-CoV Urbani / Binding of serum 37 to looped/cyclic peptides of protein X5 of SARS-CoV Urbani / Binding of serum 6 to linear peptides of protein N of SARS-CoV Urbani / Binding of serum 37 to linear peptides of protein N of SARS-CoV Urbani / Binding of serum 6 to linear peptide (PEPSCAN-ELISA) / Binding of serum 1a to looped/cyclic peptides of protein N of SARS-CoV Urbani / Binding of serum 1b to looped/cyclic peptides of protein N of SARS-CoV Urbani / Binding of serum 2 to looped/cyclic peptides of protein N of SARS-CoV Urbani / Binding of serum 6 to looped/cyclic peptides of protein N of SARS-CoV Urbani / Binding of serum 37 to looped/cyclic peptides of protein N of SARS-CoV Urbani / Binding of serum 62 to looped/cyclic peptides of protein N of SARS-CoV Urbani / Binding of serum London to looped/cyclic peptides of protein N of SARS-CoV Urbani / Binding of serum SARS-green to looped/cyclic peptides of protein N of SARS-CoV Urbani: unit not given here
[2] = tested on: control sera (pooled serum of ten healthy LUMC hospital workers; commercial negative donor pooled serum from the Dutch bloodbank); format: binding, human; design: Binding of Control serum LUMC to linear peptides / Binding of Control serum Blood-bank to linear peptides / Binding of Control serum LUMC to looped peptides / Binding of Control Serum Blood-Bank to Looped peptides / Binding of Control serum LUMC to linear peptides of the protein M of SARS-CoV Urbani / Binding of Control serum Blood-bank to linear peptides of the protein M of SARS-CoV Urbani / Binding of Control serum LUMC to looped peptides of the protein M of SARS-CoV Urbani / Binding of Control Serum Blood-Bank to Looped peptides of the protein M of SARS-CoV Urbani: unit not given here
[3] = tested on: rabbit serum obtained by immunizing a rabbit with the SARS-CoV strain Frankfurt 1; format: binding; design: Binding of a rabbit serum to linear peptides / Binding of a rabbit serum to looped peptides / Rabbit serum linear peptides / Rabbit serum looped peptides / Binding of a rabbit serum to linear peptides of protein N of SARS-CoV Urbani (Rabbit serum linear peptides) / Binding of a rabbit serum to looped/cyclic peptides of protein N of SARS-CoV Urbani (Rabbit serum looped peptides): unit not given here

EQWNLVIGFLFLAWI
Binding of serum 1a to linear peptides of protein M of SARS-CoV Urbani [1]: 0.7
Binding of serum 1a to looped/cyclic peptides of protein M of SARS-CoV Urbani [1]: 0.7
Binding of serum 1b to linear peptides of protein M of SARS-CoV Urbani [1]: 0.5
Binding of serum 1b to looped/cyclic peptides of protein M of SARS-CoV Urbani [1]: 0.6
Binding of serum 2 to linear peptides of protein M of SARS-CoV Urbani [1]: 0.5
Binding of serum 2 to looped/cyclic peptides of protein M of SARS-CoV Urbani [1]: 0.6
Binding of serum 6 to linear peptides of protein M of SARS-CoV Urbani [1]: 0.5
Binding of serum 6 to looped/cyclic peptides of protein M of SARS-CoV Urbani [1]: 0.4
Binding of serum 37 to linear peptides of protein M of SARS-CoV Urbani [1]: 0.4
Binding of serum 37 to looped/cyclic peptides of protein M of SARS-CoV Urbani [1]: 0.7
Binding of serum 62 to linear peptides of protein M of SARS-CoV Urbani [1]: 0.5
Binding of serum 62 to looped/cyclic peptides of protein M of SARS-CoV Urbani [1]: 0.7
Binding of serum London to linear peptides of protein M of SARS-CoV Urbani [1]: 0.4
Binding of serum London to looped/cyclic peptides of protein M of SARS-CoV Urbani [1]: 0.2
Binding of serum SARS-green to linear peptides of protein M of SARS-CoV Urbani [1]: 0.4
Binding of serum SARS-green to looped/cyclic peptides of protein M of SARS-CoV Urbani [1]: 0.4
Binding of serum SARS-yellow to linear peptides of protein M of SARS-CoV Urbani [1]: 0.3
Binding of serum SARS-yellow to looped/cyclic peptides of protein M of SARS-CoV Urbani [1]: 0.6
Binding of Control Serum Blood-Bank to Looped peptides of the protein M of SARS-CoV Urbani [2]: 0.6
Binding of Control serum Blood-bank to linear peptides of the protein M of SARS-CoV Urbani [2]: 0.5
Binding of Control serum LUMC to linear peptides of the protein M of SARS-CoV Urbani [2]: 0.4
Binding of Control serum LUMC to looped peptides of the protein M of SARS-CoV Urbani [2]: 0.7
Rabbit serum linear peptides [3]: 0.2
Rabbit serum looped peptides [3]: 0.4

ESELVIGAVIIRGHL
Binding of serum 1a to linear peptides of protein M of SARS-CoV Urbani [1]: 0.8
Binding of serum 1a to looped/cyclic peptides of protein M of SARS-CoV Urbani [1]: 0.6
Binding of serum 1b to linear peptides of protein M of SARS-CoV Urbani [1]: 0.6
Binding of serum 1b to looped/cyclic peptides of protein M of SARS-CoV Urbani [1]: 0.5
Binding of serum 2 to linear peptides of protein M of SARS-CoV Urbani [1]: 0.8
Binding of serum 2 to looped/cyclic peptides of protein M of SARS-CoV Urbani [1]: 0.6
Binding of serum 6 to linear peptides of protein M of SARS-CoV Urbani [1]: 0.3
Binding of serum 6 to looped/cyclic peptides of protein M of SARS-CoV Urbani [1]: 0.5
Binding of serum 37 to linear peptides of protein M of SARS-CoV Urbani [1]: 0.9
Binding of serum 37 to looped/cyclic peptides of protein M of SARS-CoV Urbani [1]: 0.5
Binding of serum 62 to linear peptides of protein M of SARS-CoV Urbani [1]: 0.8
Binding of serum 62 to looped/cyclic peptides of protein M of SARS-CoV Urbani [1]: 0.5
Binding of serum London to linear peptides of protein M of SARS-CoV Urbani [1]: 0.3
Binding of serum London to looped/cyclic peptides of protein M of SARS-CoV Urbani [1]: 0.2
Binding of serum SARS-green to linear peptides of protein M of SARS-CoV Urbani [1]: 0.3
Binding of serum SARS-green to looped/cyclic peptides of protein M of SARS-CoV Urbani [1]: 0.2
Binding of serum SARS-yellow to linear peptides of protein M of SARS-CoV Urbani [1]: 0.1
Binding of serum SARS-yellow to looped/cyclic peptides of protein M of SARS-CoV Urbani [1]: 0.4
Binding of Control Serum Blood-Bank to Looped peptides of the protein M of SARS-CoV Urbani [2]: 0.7
Binding of Control serum Blood-bank to linear peptides of the protein M of SARS-CoV Urbani [2]: 0.6
Binding of Control serum LUMC to linear peptides of the protein M of SARS-CoV Urbani [2]: 0.4
Binding of Control serum LUMC to looped peptides of the protein M of SARS-CoV Urbani [2]: 0.5
Rabbit serum linear peptides [3]: 0.4
Rabbit serum looped peptides [3]: 0.1

ESTQITTDTGIENAT
Binding of serum 1a to linear peptides of protein X1 of SARS-CoV Urbani [1]: 0.6
Binding of serum 1a to looped/cyclic peptides of protein X1 of SARS-CoV Urbani [1]: 0.4
Binding of serum 1b to linear peptides of protein X1 of SARS-CoV Urbani [1]: 0.4
Binding of serum 1b to looped/cyclic peptides of protein X1 of SARS-CoV Urbani [1]: 0.2
Binding of serum 2 to linear peptides of protein X1 of SARS-CoV Urbani [1]: 0.3
Binding of serum 2 to looped/cyclic peptides of protein X1 of SARS-CoV Urbani [1]: 0.1
Binding of serum 6 to linear peptides of protein X1 of SARS-CoV Urbani [1]: 0.4
Binding of serum 6 to looped/cyclic peptides of protein X1 of SARS-CoV Urbani [1]: 0.2
Binding of serum 37 to linear peptides of protein X1 of SARS-CoV Urbani [1]: 0.5
Binding of serum 37 to looped/cyclic peptides of protein X1 of SARS-CoV Urbani [1]: 0.3
Binding of serum 62 to linear peptides of protein X1 of SARS-CoV Urbani [1]: 0.5
Binding of serum 62 to looped/cyclic peptides of protein X1 of SARS-CoV Urbani [1]: 0.3
Binding of serum London to linear peptides of protein X1 of SARS-CoV Urbani [1]: 0.2
Binding of serum London to looped/cyclic peptides of protein X1 of SARS-CoV Urbani [1]: 0.2
Binding of serum SARS-green to linear peptides of protein X1 of SARS-CoV Urbani [1]: 0.2
Binding of serum SARS-green to looped/cyclic peptides of protein X1 of SARS-CoV Urbani [1]: 0.1
Binding of serum SARS-yellow to linear peptides of protein X1 of SARS-CoV Urbani [1]: 0.1
Binding of serum SARS-yellow to looped/cyclic peptides of protein X1 of SARS-CoV Urbani [1]: 0.3
Binding of Control Serum Blood-Bank to Looped peptides [2]: 0.4
Binding of Control serum Blood-bank to linear peptides [2]: 0.4
Binding of Control serum LUMC to linear peptides [2]: 0.5
Binding of Control serum LUMC to looped peptides [2]: 0.4
Binding of a rabbit serum to linear peptides [3]: 0.1
Binding of a rabbit serum to looped peptides [3]: 0.5

EVQQELYSPLFLIVA
Binding of serum 1a to linear peptides of protein X4 of SARS-CoV Urbani [1]: 0.7
Binding of serum 1a to looped/cyclic peptides of protein X4 of SARS-CoV Urbani [1]: 0.7
Binding of serum 1b to linear peptides of protein X4 of SARS-CoV Urbani [1]: 0.6
Binding of serum 1b to looped/cyclic peptides of protein X4 of SARS-CoV Urbani [1]: 0.6
Binding of serum 2 to linear peptides of protein X4 of SARS-CoV Urbani [1]: 0.4
Binding of serum 2 to looped/cyclic peptides of protein X4 of SARS-CoV Urbani [1]: 0.6
Binding of serum 6 to linear peptides of protein X4 of SARS-CoV Urbani [1]: 0.9
Binding of serum 6 to looped/cyclic peptides of protein X4 of SARS-CoV Urbani [1]: 0.5
Binding of serum 37 to linear peptides of protein X4 of SARS-CoV Urbani [1]: 0.8
Binding of serum 37 to looped/cyclic peptides of protein X4 of SARS-CoV Urbani [1]: 0.7
Binding of serum 62 to linear peptides of protein X4 of SARS-CoV Urbani [1]: 0.7
Binding of serum 62 to looped/cyclic peptides of protein X4 of SARS-CoV Urbani [1]: 0.6
Binding of serum London to linear peptides of protein X4 of SARS-CoV Urbani [1]: 1.0
Binding of serum London to looped/cyclic peptides of protein X4 of SARS-CoV Urbani [1]: 0.3
Binding of serum SARS-green to linear peptides of protein X4 of SARS-CoV Urbani [1]: 0.8
Binding of serum SARS-green to looped/cyclic peptides of protein X4 of SARS-CoV Urbani [1]: 0.3
Binding of serum SARS-yellow to linear peptides of protein X4 of SARS-CoV Urbani [1]: 0.6
Binding of serum SARS-yellow to looped/cyclic peptides of protein X4 of SARS-CoV Urbani [1]: 0.9
Recognition of the peptide by sera of SARS-CoV infected individuals, and form (linear, looped/cyclic) in which it is recognized [1]: recognized in looped/cyclic form
Binding of Control Serum Blood-Bank to Looped peptides [2]: 0.7
Binding of Control serum Blood-bank to linear peptides [2]: 0.5
Binding of Control serum LUMC to linear peptides [2]: 0.5
Binding of Control serum LUMC to looped peptides [2]: 0.8
Rabbit serum linear peptides [3]: 0.5
Rabbit serum looped peptides [3]: 0.5
